pIC50: −log10 of the molar value.
Key:
[1] = system: LPS-induced TNFα and IL1β cytokine production; test: LPS Mouse Assay (serum cytokines by ELISA); format: in vivo, Balb C ByJ mice; settings: mice, i.p. or oral, 30 minutes before 1 mg/kg LPS i.p.; serum 2 hours after LPS
Procedure: 7 week old Balb C ByJ mice (24-28 g) were administered, either by i.p. (5 ml/kg) or oral (10 ml/kg) administration, with vehicle or test article. 30 minutes later these animals were challenged with an intraperitoneal injection of 1 mg/kg LPS. 2 hours after LPS challenge blood samples were collected under light isoflurane anaesthesia into normal tubes by retro-orbital puncture. Samples were allowed to clot at room temperature and then spun at 6000 g for 3 min at 4° C. Serum was stored at −20° C. until use. Serum TNFα and IL-10 levels were analysed in duplicate by ELISA technique.

Beta2 = target: T1, Beta2 (Cavia porcellus, UniProt Q8K4Z4); test: Beta2 Agonism Functional Assay (inhibition of carbachol-stimulated tracheal muscle twitch); format: cell-based; settings: Guinea-pig trachea ring preparations contracted with carbachol
T1 construct: from tissue; host or cells: guinea-pig trachea rings
Procedure: Guinea-pig trachea ring preparations were suspended in Kreb's solution containing indomethacin. […] Beta2 agonism for each test compound was determined by its dose-dependant inhibition of carbachol-stimulated tracheal muscle twitch.

T1 sequence (Q8K4Z4 whole entry): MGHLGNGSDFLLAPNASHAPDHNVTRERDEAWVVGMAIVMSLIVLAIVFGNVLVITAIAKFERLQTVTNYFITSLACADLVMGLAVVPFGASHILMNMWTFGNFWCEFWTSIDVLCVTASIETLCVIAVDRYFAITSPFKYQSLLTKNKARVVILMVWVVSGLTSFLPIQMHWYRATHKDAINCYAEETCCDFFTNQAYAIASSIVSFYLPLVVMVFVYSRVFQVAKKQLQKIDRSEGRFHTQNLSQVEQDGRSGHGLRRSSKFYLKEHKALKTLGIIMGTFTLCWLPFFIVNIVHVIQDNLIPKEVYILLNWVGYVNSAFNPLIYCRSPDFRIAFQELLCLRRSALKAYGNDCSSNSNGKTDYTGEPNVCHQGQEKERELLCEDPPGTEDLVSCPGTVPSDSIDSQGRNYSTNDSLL

SMILES	effect on LPS-induced IL1β production [1]	effect on LPS-induced TNFα production [1]	beta2 agonism (in words) (Beta2)	pIC50 (Beta2; inhibition of tracheal muscle twitch)
Nc1c(Cl)cc(C(O)C2CCCCN2)cc1Cl (single isomer, unassigned) [Compound 7, Erythro-(3,5-dichloro-4-amino-phenyl)-piperidin-2-yl-methanol]	had effects	had effects	poor, beta2 agonists	< 5.70
Nc1c(Cl)cc(C(O)C2CCCCN2)cc1Cl (single isomer, unassigned) [Compound 8, (Erythro)-(3,5-dichloro-4-amino-phenyl)-piperidin-2-yl-methanol]	had effects	had effects	poor, beta2 agonists	
Nc1c(Cl)cc(C(O)C2CCCCN2)cc1Cl (single isomer, unassigned) [Compound 10, Threo-(3,5-dichloro-4-amino-phenyl)-piperidin-2-yl-methanol]	had effects	had effects	poor, beta2 agonists	
Nc1c(Cl)cc(C(O)C2CCCCN2)cc1Cl (single isomer, unassigned) [Compound 11, Threo-(3,5-Dichloro-4-amino-phenyl)-piperidin-2-yl-methanol]	had effects	had effects	poor, beta2 agonists	

Source: patent US20100016357A1, “Use of Beta-Aminoalcohols for the Treatment of Inflammatory Disorders and Pain” (SOSEI R & D LTD., priority 2006, published 2010)
